How the values were obtained:
[1] = tested on: monoclonal anti-hcTnT antibody M11.7; assay: ITEM-FOUR nano-ESI mass spectrometry: in-solution immune complex formation and gas-phase dissociation of M11.7 antibody–epitope peptide complexes; type: binding; conditions: for dx (V): Boltzmann curve parameter; for dx (V) / ΔCV50 (V) / Slope (%/V) / Δ (% pts) / in-solution immune complex formation with M11.7 (binding in words): peptide:antibody 13:1; for dx (V) / ΔCV50 (V) / Final (%) / Initial (%) / Slope (%/V): averaged from two acquisitions; for Binding Type: class by difference of normalized product ion intensities over ΔCV; for ΔCV50 (V): collision cell voltage difference for 50% dissociation, Boltzmann fit; for Final (%): normalized product ion quantity at highest applied ΔCV, peptide:antibody 13:1, 200 mM ammonium acetate pH 6.7; for Initial (%): normalized product ion quantity at lowest applied ΔCV, peptide:antibody 13:1, 200 mM ammonium acetate pH 6.7, at least 1 h RT, nano-ESI, ΔCV 0-58 V; for Slope (%/V): slope of Boltzmann curve; for Δ (% pts): difference Final minus Initial normalized product ion intensity; for in-solution immune complex formation with M11.7 (binding in words): nano-ESI-MS, 200 mM ammonium acetate pH 6.7; for KD m0g# [Ø]: apparent gas-phase dissociation constant, dimensionless number, extrapolated to ambient temperature; for ΔGm0g# / Tamb ΔSm0g# / ΔHm0g#: pseudo thermodynamic value of gas-phase complex dissociation; for ΔGm0g#: Ellingham diagram read at Tamb; for Tamb ΔSm0g# / ΔHm0g#: extrapolated to Tamb
Description: (§1) Immune complex-containing solutions of a wild-type epitope peptide and its corresponding antibody, e.g., P11 and M7, were prepared by mixing the two components in 200 mM ammonium acetate buffer (pH 6.7), ensuring a molar excess of the epitope peptide over the antibody to achieve binding saturation. After an incubation period of one hour, the entire mixture (~3 µL) was loaded into a nano-ESI emitter and electrosprayed. The mass spectrometer was configured to transmit only ion signals with m/z values above 3850, effectively eliminating signals from the unbound peptide (Figure 1A).
(§2) Antibody–peptide mixture solutions were prepared for ITEM FOUR experiments by mixing 5 µL of one antibody working solution with one assigned peptide working solution to generate antibody to peptide molar ratios of 1:2.1 for all solutions that contained the M7 antibody. For mixture solutions containing the M11.7 or the anti-TNFα antibody, 1:13 molar ratios were prepared. Antibodies were incubated together with peptides for at least one hour at room temperature prior to analysis.
(§3) Data acquisition for ITEM-FOUR experiments was performed as described in [18] with the Synapt G2S mass spectrometer (Waters MS-Technologies, Wilmslow, UK) and with the following instrumental settings: source temperature, 40 °C; capillary voltage, 1.0–1.3 kV; sample cone voltage, 130 V; source offset voltage, 130 V; trap gas flow (argon), 8.0 mL/min; helium gas: 20 bar. All mass spectra were acquired in positive-ion mode applying a mass window of m/z 200–8000. The quadrupole analyzer was used to block transmission of lower-molecular-mass ions: M1 = 5000 with dwell time of 25% and ramp time of 25%; M2 = 5000 with dwell time of 25% and ramp time of 25%; M3 = 5000. ΔCV in the TRAP collision cell was increased stepwise as follows: 0, 2, 6, 10, 14, 18, 22, 26, 30, 34, 40, 46, 52 and 58 V. The ion mobility separation mode was not used. All acquired scans during a given collision cell voltage difference setting were integrated to obtain an averaged spectrum from which ion intensities were extracted for ITEM-FOUR calculations. Data were acquired and processed with MassLynx software version 4.1 (Waters MS-Technologies). For exact time stamps of all measurements, refer to Table S2 in the Supplement (see also the deposited raw data supplement in the PRIDE directory). All mass spectra for each ΔCV setting were smoothed using the Savitzky-Golay method. Spectra of antibody solutions and antibody–peptide mixture solutions were smoothed using 30 cycles with a 15-mass unit window at the high mass end and at the low mass end with 3 cycles and a 2-mass unit window. All measurements were recorded in duplicate. The mass spectrometric raw data have been deposited via the ProteomeXchange Consortium in the PRIDE partner repository with the dataset identifier PXD058812 [70].
(§4) The Origin Pro 2023b (64-bit, OriginLab Corporation, Northampton, MA, USA) software package with an automation script for processing multiple datasets was used to graphically plot the extracted intensities of the ion signals of all relevant molecular entities (the immune complex with two bound peptides, the immune complex with one bound peptide, free antibodies, and free peptides) against their corresponding charge state for each collision cell voltage difference (ΔCV). Subsequently, Gaussian curve fittings were performed separately for each molecular entity. […] Iterations were performed for R2 values to be at least 0.91. Apices of Gaussian curves provided the intensities and the average m/z values for each molecular species. Intensity values of individual molecular entities (educts and products) were summed and normalized. Normalized intensities of educts and products from duplicate measurements were averaged.
(§5) The number of atoms from rituximab was used because the amino acid sequences of neither the M7 nor the M11.7 antibody were disclosed. […]

[2] = tested on: monoclonal anti-hcTnT antibody M7; assay: ITEM-FOUR nano-ESI mass spectrometry: in-solution immune complex formation and gas-phase dissociation of M7 antibody–epitope peptide complexes; type: binding; conditions: for dx (V): Boltzmann curve parameter; for dx (V) / ΔCV50 (V) / Slope (%/V): peptide:antibody 2.1:1; for dx (V) / ΔCV50 (V) / Final (%) / Initial (%) / Slope (%/V): averaged from two acquisitions; for KD m0g# [Ø]: apparent gas-phase dissociation constant, dimensionless number, extrapolated to ambient temperature; for Binding Type: class by difference of normalized product ion intensities over ΔCV; for ΔCV50 (V): collision cell voltage difference for 50% dissociation, Boltzmann fit; for Final (%): normalized product ion quantity at highest applied ΔCV, peptide:antibody 2.1:1, 200 mM ammonium acetate pH 6.7; for Initial (%): normalized product ion quantity at lowest applied ΔCV, peptide:antibody 2.1:1, 200 mM ammonium acetate pH 6.7, at least 1 h RT, nano-ESI, ΔCV 0-58 V; for ΔGm0g# / Tamb ΔSm0g# / ΔHm0g#: pseudo thermodynamic value of gas-phase complex dissociation; for ΔGm0g#: Ellingham diagram read at Tamb; for Tamb ΔSm0g# / ΔHm0g#: extrapolated to Tamb; for Slope (%/V): slope of Boltzmann curve
Description: as §1, §2, §3, §4, §5

Sequence	dx (V) [1]	Binding Type [1]	ΔCV50 (V) [1]	Final (%) [1]	Initial (%) [1]	Slope (%/V) [1]	further results
AEQQCIRNEREKERQ [Peptide P25]	6.00 V	unorthodox (Differences in normalized product ion intensities were less than 15 percentage points, but greater than 5 percentage points)	10.06 V	93.33%	80.75%	0.52 %/V	
AEQQHIRNEREKERQ [Peptide P27]	7.60 V	unorthodox (Differences in normalized product ion intensities were less than 15 percentage points, but greater than 5 percentage points)	14.04 V	93.49%	80.22%	0.44 %/V	
AEQQRIQNEREKERQ [Peptide P29]	5.17 V	unorthodox (Differences in normalized product ion intensities were less than 15 percentage points, but greater than 5 percentage points)	9.96 V	93.92%	84.39%	0.46 %/V	Δ (% pts) [1]: 9.53 % pts
AEQQRIRNEQEKERQ [Peptide P31]		non-binding (The differences in normalized product intensity values were less than 5 percentage points)		93.39%	93.60%		in-solution immune complex formation with M11.7 (binding in words) [1]: Loss of binding
AEQQRIRNERKKERQ [Peptide P32]	7.32 V	orthodox (The differences in normalized product ion intensity values were always greater than 15 percentage points)	17.63 V	96.03%	69.09%	0.92 %/V	KD m0g# [Ø] [1]: 1.43 Ø; ΔGm0g# [1]: -0.21 kcal/mol; Tamb ΔSm0g# [1]: 12.24 kcal/mol; ΔHm0g# [1]: 12.03 kcal/mol
AEQQRIRNEWEKERQ [Peptide P30]		non-binding (The differences in normalized product intensity values were less than 5 percentage points)		94.03%	90.48%		in-solution immune complex formation with M11.7 (binding in words) [1]: Loss of binding
AEQQRIWNEREKERQ [Peptide P28]	6.90 V	unorthodox (Differences in normalized product ion intensities were less than 15 percentage points, but greater than 5 percentage points)	13.80 V	93.90%	86.91%	0.25 %/V	Δ (% pts) [1]: 6.99 % pts
AEQQSIRNEREKERQ [Peptide P26]	6.49 V	unorthodox (Differences in normalized product ion intensities were less than 15 percentage points, but greater than 5 percentage points)	26.67 V	86.48%	80.48%	0.25 %/V	Δ (% pts) [1]: 6.00 % pts
AEQRRIRNEREKERQ [Peptide P24]		non-binding (The differences in normalized product intensity values were less than 5 percentage points)		93.57%	90.25%		in-solution immune complex formation with M11.7 (binding in words) [1]: Loss of binding
AKQQRIRNEREKERQ [Peptide P23]	7.29 V	orthodox (The differences in normalized product ion intensity values were always greater than 15 percentage points)	22.47 V	89.77%	67.00%	0.78 %/V	KD m0g# [Ø] [1]: 1.18 Ø; ΔGm0g# [1]: -0.1 kcal/mol; Tamb ΔSm0g# [1]: 9.037 kcal/mol; ΔHm0g# [1]: 8.941 kcal/mol
AQQQRIRNEREKERQ [Peptide P22]	7.70 V	unorthodox (Differences in normalized product ion intensities were less than 15 percentage points, but greater than 5 percentage points)	25.18 V	97.12%	87.08%	0.33 %/V	
LVSLKDRIERCRAER [Peptide P13]							dx (V) [2]: 6.55 V; KD m0g# [Ø] [2]: 0.28 Ø; Binding Type [2]: orthodox (The differences in normalized product ion intensity values were always greater than 15 percentage points); ΔCV50 (V) [2]: 23.30 V; Final (%) [2]: 83.40%; Initial (%) [2]: 40.36%; ΔGm0g# [2]: 0.758 kcal/mol; Tamb ΔSm0g# [2]: 12.43 kcal/mol; ΔHm0g# [2]: 13.18 kcal/mol; Slope (%/V) [2]: 1.64 %/V
LVSLKDRIERRGAER [Peptide P15]							dx (V) [2]: 6.09 V; Binding Type [2]: unorthodox (Differences in normalized product ion intensities were less than 15 percentage points, but greater than 5 percentage points); ΔCV50 (V) [2]: 24.89 V; Final (%) [2]: 84.98%; Initial (%) [2]: 70.69%; Slope (%/V) [2]: 0.59 %/V
LVSLKDRIERRPAER [Peptide P16]							dx (V) [2]: 5.05 V; KD m0g# [Ø] [2]: 0.48 Ø; Binding Type [2]: orthodox (The differences in normalized product ion intensity values were always greater than 15 percentage points); ΔCV50 (V) [2]: 15.83 V; Final (%) [2]: 96.90%; Initial (%) [2]: 55.34%; ΔGm0g# [2]: 0.44 kcal/mol; Tamb ΔSm0g# [2]: 20.02 kcal/mol; ΔHm0g# [2]: 20.46 kcal/mol; Slope (%/V) [2]: 2.06 %/V

Reference: PMC12112476, “Mass Spectrometric ITEM-FOUR Analysis Reveals Coding Single-Nucleotide Polymorphisms in Human Cardiac Troponin T That Evade Detection by Sandwich ELISAs Which Use Monoclonal Antibodies M7 and M11.7 from the Elecsys Troponin T® Assay” (International Journal of Molecular Sciences, 2025)
